Values of other authors in patent US20230303507A1, “RIGID C[…] AS POTENT MODULATORS OF CANNABINOID RECEPTORS AND USES THEREOF” (priority 2020, published 2023).

Biological target: CB2 (Homo sapiens, UniProt P34972)
Sequence (P34972 whole entry, species assumed): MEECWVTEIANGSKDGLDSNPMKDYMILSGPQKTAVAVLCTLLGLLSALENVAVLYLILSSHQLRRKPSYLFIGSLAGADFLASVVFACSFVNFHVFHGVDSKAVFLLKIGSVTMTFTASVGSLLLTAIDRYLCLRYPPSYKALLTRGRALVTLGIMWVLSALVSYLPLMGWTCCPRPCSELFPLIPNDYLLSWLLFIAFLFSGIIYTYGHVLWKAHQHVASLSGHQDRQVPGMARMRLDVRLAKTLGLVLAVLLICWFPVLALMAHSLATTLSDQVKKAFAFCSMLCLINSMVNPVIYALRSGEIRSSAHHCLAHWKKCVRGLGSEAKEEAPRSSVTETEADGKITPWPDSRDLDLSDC

Row | SMILES | mode of action on CB2
1 | C=C(C)[C@@H]1CCC(C)=C[C@H]1c1c(O)cc(CCCCC)cc1O [CBD, cannabidiol] | weak inverse agonist
2 | CCCCCc1cc(O)c2c(c1)OC(C)(C)[C@@H]1CCC(C)=C[C@@H]21 [THC, delta-9-tetrahydrocannabinol] | partial agonist
